Reference: ChEMBL document CHEMBL6096698, “Discovery of a Selective and Orally Bioavailable RET Degrader with Effectiveness in Various Mutations” (J Med Chem, 2025)

What was measured:
BaF3 [1] = assay: Antiproliferative activity against mouse BaF3 cells stably expressing KIF5B-RET G810C mutant incubated for 72 hrs by CCK8 assay; format: functional, cell-based; conditions: BaF3, 72 h
BaF3 [2] = assay: Antiproliferative activity against mouse BaF3 cells stably expressing KIF5B-RET incubated for 72 hrs by CCK8 assay; format: functional, cell-based; conditions: BaF3, 72 h
BaF3 [3] = assay: PROTAC activity at CRBN/KIF5B-RET (unknown origin) expressed in mouse BaF3 cells assessed as induction of RET degradation at 10 nM incubated for 24 hrs by immunoblot analysis relative to control; format: cell-based
BaF3 [4] = assay: Antiproliferative activity against mouse BaF3 cells stably expressing KIF5B-RET V804M mutant incubated for 72 hrs by CCK8 assay; format: functional, cell-based; conditions: BaF3, 72 h
BaF3 [5] = assay: Antiproliferative activity against mouse BaF3 cells stably expressing KIF5B-RET G810R mutant incubated for 72 hrs by CCK8 assay; format: functional, cell-based; conditions: BaF3, 72 h
BaF3 [6] = assay: Antiproliferative activity against mouse BaF3 cells stably expressing KIF5B-RET G810S mutant incubated for 72 hrs by CCK8 assay; format: functional, cell-based; conditions: BaF3, 72 h

| IC50 (BaF3 [1]) [nM] | IC50 (BaF3 [2]) [nM] | IC50 (BaF3 [4]) [nM] | IC50 (BaF3 [5]) [nM] | IC50 (BaF3 [6]) [nM] | SMILES | Activity (BaF3 [3]) [%] |
| --- | --- | --- | --- | --- | --- | --- |
| 1380 | 19 | 190 | 1770 | 384 | COc1ccc(CN2C3CC2CN(c2ccc(-c4cc(N5CCN(C(=O)CNc6cccc7c6C(=O)N(C6CCC(=O)NC6=O)C7=O)CC5)cn5ncc(C#N)c45)cn2)C3)cn1 (configuration not stated) | 33 |
| 372 | 15.7 | 38.4 | 750 | > 5000 | COc1ccc(CN2C3CC2CN(c2ccc(-c4cc(N5CCN(C6CCN(c7ccc8c(c7)C(=O)N(C7CCC(=O)NC7=O)C8=O)CC6)CC5)cn5ncc(C#N)c45)cn2)C3)cn1 (configuration not stated) | 36 |
| 89.2 | 5.1 | 12.4 | 321 | 84.1 | COc1ccc(CN2C3CC2CN(c2ccc(-c4cc(N5CCC(N6CCN(CCCC#Cc7ccc8c(c7)C(=O)N(C7CCC(=O)NC7=O)C8=O)CC6)CC5)cn5ncc(C#N)c45)cn2)C3)cn1 (configuration not stated) | 60 |
| 212 | 5.9 | 17.8 | 672 | 93.5 | COc1ccc(CN2C3CC2CN(c2ccc(-c4cc(N5CCC(N6CCN(C(=O)CCCCCCCNc7cccc8c7C(=O)N(C7CCC(=O)NC7=O)C8=O)CC6)CC5)cn5ncc(C#N)c45)cn2)C3)cn1 (configuration not stated) | 50 |
| 228 | 5.7 | 14.1 | 714 | 102 | COc1ccc(CN2C3CC2CN(c2ccc(-c4cc(N5CCN(C(=O)CCCCCCCNc6ccc7c(c6)C(=O)N(C6CCC(=O)NC6=O)C7=O)CC5)cn5ncc(C#N)c45)cn2)C3)cn1 (configuration not stated) | 52 |
| 192 | 10.3 | 21.4 | 1890 | 126 | COc1ccc(CN2C3CC2CN(c2ccc(-c4cc(N5CCN(CC6CCN(c7ccc8c(c7)C(=O)N(C7CCC(=O)NC7=O)C8=O)CC6)CC5)cn5ncc(C#N)c45)cn2)C3)cn1 (configuration not stated) | 41 |
| 831 | 14.9 | 152 | 812 | 127 | COc1ccc(CN2C3CC2CN(c2ccc(-c4cc(N5CCC(N6CCN(C(=O)CCCNc7ccc8c(c7)C(=O)N(C7CCC(=O)NC7=O)C8=O)CC6)CC5)cn5ncc(C#N)c45)cn2)C3)cn1 (configuration not stated) | 39 |
| 61.8 | 12.5 | 27.6 | 737 | 105 | COc1ccc(CN2C3CC2CN(c2ccc(-c4cc(N5CCC(N6CCN(CCCCCC#Cc7cccc8c7CN(C7CCC(=O)NC7=O)C8=O)CC6)CC5)cn5ncc(C#N)c45)cn2)C3)cn1 (configuration not stated) | 40 |
| 232 | 6.8 | 17.4 | 811 | 125 | COc1ccc(CN2C3CC2CN(c2ccc(-c4cc(N5CCN(C(=O)CCCCCNc6ccc7c(c6)C(=O)N(C6CCC(=O)NC6=O)C7=O)CC5)cn5ncc(C#N)c45)cn2)C3)cn1 (configuration not stated) | 49 |
| 1020 | 12.2 | 142 | 1140 | 272 | COc1ccc(CN2C3CC2CN(c2ccc(-c4cc(N5CCN(C(=O)CCCNc6cccc7c6C(=O)N(C6CCC(=O)NC6=O)C7=O)CC5)cn5ncc(C#N)c45)cn2)C3)cn1 (configuration not stated) | 44 |
| 206 | 5.3 | 16.6 | 572 | 81.9 | COc1ccc(CN2C3CC2CN(c2ccc(-c4cc(N5CCC(N6CCN(C(=O)CNc7ccc8c(c7)C(=O)N(C7CCC(=O)NC7=O)C8=O)CC6)CC5)cn5ncc(C#N)c45)cn2)C3)cn1 (configuration not stated) | 52 |
| 54.3 | 4.3 | 9.3 | 206 | 63.7 | COc1ccc(CN2C3CC2CN(c2ccc(-c4cc(N5CCC(N6CCN(CCCC#Cc7cccc8c7C(=O)N(C7CCC(=O)NC7=O)C8=O)CC6)CC5)cn5ncc(C#N)c45)cn2)C3)cn1 (configuration not stated) | 62 |
